Assay results as given in US11339144B2 (Navitor Pharmaceuticals, Inc., priority 2017, dated 2022).
Like-named read-outs stand apart in the source and are kept apart here.

Experiments:
T389pS6K1 in MCF-7 cells = assay: Cell-based AlphaLISA assay, pS6K1 (Thr389)
[1] = target: HA-GST-Rheb (GTP-γ-S loaded) activating mTORC1 (Homo sapiens (Human), UniProt Q15382); assay: Rheb-dependent in vitro kinase assay (Rheb-IVK; LanthaScreen or Western readout); assay type: biochemical
Rheb = Rheb (Homo sapiens (Human), UniProt Q15382); assay: Affinity Selection Mass Spectrometry (ASMS); assay type: binding; details: affinity (R3/R0) in Affinity Selection Mass Spectrometry assay
Outline: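 Affinity selection used 2 μM compound with 60 μM Rheb and 180 μM GDP for 30 min at room temperature. After 10 kDa ultrafiltration washes, protein was denatured in MeCN and bound compound quantified by C18 UPLC with Q-TOF MS, against a no-protein control.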

S473pAkt in MCF-7 cells = assay: Cell-based AlphaLISA assay, pAkt (S473)
[2] = tested on: mTORC1 and mTORC2 signaling in PC3 cells; assay: Long-term treatment vs. rapamycin in PC3 cells, Western blot; assay type: cell-based; details: replete, 2, 5, 18 or 24 hrs, NR1 30 μM, rapamycin 100 nM
[3] = Rheb-dependent in vitro kinase assay, read-out: IVK IC50
[4] = LanthaScreen variation, Terbium labeled T46p4E-BP1 specific antibody, read-out: IC50 in the Rheb-IVK

Chain of HA-GST-Rheb (GTP-γ-S loaded) activating mTORC1 (Q15382 1-181): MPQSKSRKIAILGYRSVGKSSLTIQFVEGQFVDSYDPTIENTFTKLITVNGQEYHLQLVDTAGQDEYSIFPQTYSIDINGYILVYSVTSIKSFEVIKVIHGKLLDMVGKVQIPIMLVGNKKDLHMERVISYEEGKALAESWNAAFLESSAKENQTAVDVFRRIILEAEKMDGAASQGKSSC
Chain of Rheb (Q15382 1-169 limits assumed): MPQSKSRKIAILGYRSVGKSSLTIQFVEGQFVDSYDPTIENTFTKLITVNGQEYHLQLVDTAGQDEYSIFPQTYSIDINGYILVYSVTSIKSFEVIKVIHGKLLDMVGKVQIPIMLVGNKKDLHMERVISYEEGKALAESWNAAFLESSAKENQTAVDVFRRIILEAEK

SMILES	IC50 [1, 3] [µM]	ASMS (R3/R0) (Rheb)	further results
CN1CCN(c2cccc(NC(=O)c3cc4c(-c5cc(Cl)cc(Cl)c5)cc(Cl)cc4[nH]3)c2)CC1 [I-30, 6-chloro-4-(3,5-dichlorophenyl)-N-(3-(4-methylpiperazin-1-yl)phenyl)-1H-indole-2-carboxamide]	< 10	A (an affinity (R3/R0)>100%)	IC50 (T389pS6K1 in MCF-7 cells; Homo sapiens, MCF7): < 10 µM
CN1CCC(NC(=O)c2cc3c(Sc4ccc(Cl)cc4)cc(Cl)cc3[nH]2)C1 (stereo not drawn) [I-79, 6-chloro-4-(4-chlorophenylthio)-N-(1-methylpyrrolidin-3-yl)-1H-indole-2-carboxamide]	< 10	B (an affinity (R3/R0) between 100% and 20%)	IC50 (T389pS6K1 in MCF-7 cells; Homo sapiens, MCF7): < 10 µM
CN(C)C(=O)c1ccc(Cn2c(C(=O)O)cc3c(Br)cc(Sc4ccc(Cl)c(Cl)c4)cc32)cc1 [I-102, 4-Bromo-6-(3,4-dichlorophenylthio)-1-(4-(dimethylcarbamoyl)benzyl)-1H-indole-2-carboxylic acid]	< 10	B (an affinity (R3/R0) between 100% and 20%)	inhibition of pAKT (S473pAkt in MCF-7 cells): did not inhibit pAKT; IC50 [1, 4]: ~2.1 µM
CN1CCC(CCNC(=O)c2cc3c(Sc4ccc(Cl)cc4Cl)cc(Cl)cc3[nH]2)CC1 [I-106, 6-chloro-4-(2,4-dichlorophenylthio)-N-(2-(1-methylpiperidin-4-yl)ethyl)-1H-indole-2-carboxamide]	< 10	B (an affinity (R3/R0) between 100% and 20%)	IC50 (T389pS6K1 in MCF-7 cells; Homo sapiens, MCF7): < 10 µM
CN1CCC(CNC(=O)c2cc3c(Sc4ccc(Cl)cc4Cl)cc(Cl)cc3[nH]2)CC1 [I-120, 6-chloro-4-(2,4-dichlorophenylthio)-N-((1-methylpiperidin-4-yl)methyl)-1H-indole-2-carboxamide]	< 10	B (an affinity (R3/R0) between 100% and 20%)	IC50 (T389pS6K1 in MCF-7 cells; Homo sapiens, MCF7): < 10 µM
CN1CCN(c2ccc(NC(=O)c3cc4c(Sc5ccc(Cl)cc5)cc(Cl)cc4[nH]3)cc2F)CC1 [I-141, 6-chloro-4-(4-chlorophenylthio)-N-(3-fluoro-4-(4-methylpiperazin-1-yl)phenyl)-1H-indole-2-carboxamide]	< 10	B (an affinity (R3/R0) between 100% and 20%)	IC50 (T389pS6K1 in MCF-7 cells; Homo sapiens, MCF7): < 10 µM
Clc1ccc2nc(-c3ncco3)n(Cc3ccc(-c4nnn[nH]4)cc3)c2c1 [I-411, 2-(1-(4-(1H-tetrazol-5-yl)benzyl)-6-chloro-1H-benzo[d]imidazol-2-yl)oxazole]	10 to 100	C (an affinity (R3/R0)<20%)	
c1ccc(Oc2cccc3c2nc(-c2ncco2)n3Cc2ccc(-c3nnn[nH]3)cc2)cc1 [I-421, 2-(1-(4-(1H-tetrazol-5-yl)benzyl)-4-phenoxy-1H-benzo[d]imidazol-2-yl)oxazole]	10 to 100	C (an affinity (R3/R0)<20%)	
Cn1c(CO)nc2cc(OCc3ccccc3)c(Cl)cc21 [I-425, (5-(benzyloxy)-6-chloro-1-methyl-1H-benzo[d]imidazol-2-yl)methanol]	> 3	C (an affinity (R3/R0)<20%)	
OCc1nc2cc(OCc3ccccc3)c(Cl)cc2n1Cc1ccc(-c2nnn[nH]2)cc1 [I-437, (1-(4-(1H-tetrazol-5-yl)benzyl)-5-(benzyloxy)-6-chloro-1H-benzo[d]imidazol-2-yl)methanol]	> 3	C (an affinity (R3/R0)<20%)	
OCc1nc2cc(Cl)c(OCc3ccccc3)cc2n1Cc1ccc(-c2nnn[nH]2)cc1 [I-440, (1-(4-(1H-tetrazol-5-yl)benzyl)-6-(benzyloxy)-5-chloro-1H-benzo[d]imidazol-2-yl)methanol]	10 to 100	C (an affinity (R3/R0)<20%)	
OCc1nc2cc(OCc3cccc(F)c3)c(Cl)cc2[nH]1 [I-484, (6-chloro-5-(3-fluorobenzyloxy)-1H-benzo[d]imidazol-2-yl)methanol]	100 to 300	B (an affinity (R3/R0) between 100% and 20%)	
Clc1cc2nc(-c3ncco3)n(Cc3ccc(-c4nn[nH]n4)cc3)c2cc1Cl [I-489, 2-(1-(4-(2H-tetrazol-5-yl)benzyl)-5,6-dichloro-1H-benzo[d]imidazol-2-yl)oxazole]	100 to 300	C (an affinity (R3/R0)<20%)	
CCC(=O)N1CCN(c2ccc(-n3c(=O)ccc4cnc5ccc(-c6cnc7ccccc7c6)cc5c43)cc2C(F)(F)F)CC1 [Torin-1, reference compound]			IC50 (S473pAkt in MCF-7 cells): ~0.005 µM; IC50 (T389pS6K1 in MCF-7 cells): ~0.001 µM; IC50 [1, 4]: ~0.002 µM
CO[C@H]1C[C@@H]2CC[C@@H](C)[C@@](O)(O2)C(=O)C(=O)N2CCCC[C@H]2C(=O)O[C@H]([C@H](C)C[C@@H]2CC[C@@H](O)[C@H](OC)C2)CC(=O)[C@H](C)/C=C(\C)[C@@H](O)[C@@H](OC)C(=O)[C@H](C)C[C@H](C)/C=C/C=C/C=C/1C [rapamycin, reference compound]			inhibition of the Rheb-IVK ([1]; LanthaScreen variation, no FKBP12 present): did not inhibit the Rheb-IVK; mTORC1 versus mTORC2 signaling with chronic exposure (T389pS6K1, S473pAkt) [2]: inhibits mTORC2 signaling with chronic exposure

The next lines start with results.

IC50 [1, 3] [µM]	ASMS (R3/R0) (Rheb)	SMILES	further results
< 10	A (an affinity (R3/R0)>100%)	CN1CCC(CCNC(=O)c2cc3c(Sc4ccc(Cl)cc4)cc(Cl)cc3[nH]2)CC1 [I-142, 6-chloro-4-(4-chlorophenylthio)-N-(2-(1-methylpiperidin-4-yl)ethyl)-1H-indole-2-carboxamide]	IC50 (T389pS6K1 in MCF-7 cells; Homo sapiens, MCF7): < 10 µM
10 to 100	C (an affinity (R3/R0)<20%)	OCc1nc2c(OC[C@H]3CCCC[C@@H]3O)c(Cl)c(Cl)cc2[nH]1 [I-439, 2-((5,6-dichloro-2-(hydroxymethyl)-1H-benzo[d]imidazol-4-yloxy)methyl)cyclohexanol]	
> 100	C (an affinity (R3/R0)<20%)	OCc1nc2cc(OCc3ccccc3F)c(Cl)cc2[nH]1 [I-481]	
> 100	A (an affinity (R3/R0)>100%)	OCc1nc2cc(OCc3ccc(Cl)cc3)c(Cl)cc2[nH]1 [I-486, (6-chloro-5-(4-chlorobenzyloxy)-1H-benzo[d]imidazol-2-yl)methanol]	
> 100	C (an affinity (R3/R0)<20%)	OCc1nc2cc(OCc3ccccc3)c(Cl)cc2[nH]1 [I-492]	
> 100	C (an affinity (R3/R0)<20%)	OCc1nc2c(OCc3ccccc3)cc(Cl)cc2[nH]1 [I-493]	
